Read-outs that look alike come from different tables or passages of the source.
What was measured:
Format in all cases: in vivo
[1] = test system: Rice; test: pre-emergence herbicide test; settings: Oryza sativa, read-out: % plant inhibition; for inhibition at 40.0143 g/ha: 0.0357 lb/A; for inhibition at 200.072 g/ha: 0.1785 lb/A; for inhibition at 1000.92 g/ha: 0.893 lb/A
Method in brief: (§1)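 Known amounts of active ingredient went into the cover soil over seeds sown in pans, either before or after the layer was spread. An initial 1/4 inch overhead irrigation was given in some cases; otherwise pans were subirrigated. Rating was % inhibition at ~14 days.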

[2] = test system: Velvetleaf; test: pre-emergence herbicide test; settings: Abutilon theophrasti, pre-emergence, read-out: % plant inhibition; for inhibition at 40.0143 g/ha: 0.0357 lb/A; for inhibition at 200.072 g/ha: 0.1785 lb/A; for inhibition at 1000.92 g/ha: 0.893 lb/A
Method in brief: as §1

[3] = test system: Yellow Foxtail; test: pre-emergence herbicide test; settings: Setaria, read-out: % plant inhibition; for inhibition at 40.0143 g/ha: 0.0357 lb/A; for inhibition at 200.072 g/ha: 0.1785 lb/A; for inhibition at 1000.92 g/ha: 0.893 lb/A
Method in brief: as §1

[4] = test system: Barnyardgrass; test: post-emergence herbicide test; settings: Echinochloa crus-galli, post-emergence, read-out: % plant inhibition; for inhibition at 40.0143 g/ha: 0.0357 lb/A; for inhibition at 200.072 g/ha: 0.1785 lb/A; for inhibition at 1000.92 g/ha: 0.893 lb/A
Method in brief: (§2)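 Activity is given as percent inhibition of each species following foliar application. Pots were sprayed individually in a chamber once plants reached two to three weeks.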

[5] = test system: Bedstraw Catchweed; test: post-emergence herbicide test; settings: Galium aparine, post-emergence, read-out: % plant inhibition; for inhibition at 40.0143 g/ha: 0.0357 lb/A; for inhibition at 200.072 g/ha: 0.1785 lb/A; for inhibition at 1000.92 g/ha: 0.893 lb/A
Method in brief: as §2

[6] = test system: Blackgrass; test: post-emergence herbicide test; settings: Alopecurus myosuroides, post-emergence, read-out: % plant inhibition; for inhibition at 7.95803 g/ha: 0.0071 lb/A; for inhibition at 40.0143 g/ha: 0.0357 lb/A; for inhibition at 200.072 g/ha: 0.1785 lb/A; for inhibition at 1000.92 g/ha: 0.893 lb/A; for inhibition at 5043.82 g/ha: 4.5 lb/A
Method in brief: as §2

[7] = test system: Cocklebur; test: post-emergence herbicide test; settings: Xanthium strumarium, post-emergence, read-out: % plant inhibition; for inhibition at 40.0143 g/ha: 0.0357 lb/A; for inhibition at 200.072 g/ha: 0.1785 lb/A; for inhibition at 1000.92 g/ha: 0.893 lb/A
Method in brief: as §2

[8] = test system: Common Chickweed; test: post-emergence herbicide test; settings: post-emergence, read-out: % plant inhibition; for inhibition at 40.0143 g/ha: 0.0357 lb/A; for inhibition at 200.072 g/ha: 0.1785 lb/A; for inhibition at 1000.92 g/ha: 0.893 lb/A
Method in brief: as §2

[9] = test system: Corn; test: post-emergence herbicide test; settings: Zea mays, post-emergence, read-out: % plant inhibition; for inhibition at 40.0143 g/ha: 0.0357 lb/A; for inhibition at 200.072 g/ha: 0.1785 lb/A; for inhibition at 1000.92 g/ha: 0.893 lb/A
Method in brief: as §2

[10] = test system: Morning Glory; test: post-emergence herbicide test; settings: Ipomoea, post-emergence, read-out: % plant inhibition; for inhibition at 40.0143 g/ha: 0.0357 lb/A; for inhibition at 200.072 g/ha: 0.1785 lb/A; for inhibition at 1000.92 g/ha: 0.893 lb/A
Method in brief: as §2

[11] = test system: Soybean; test: post-emergence herbicide test; settings: Glycine max, post-emergence, read-out: % plant inhibition; for inhibition at 40.0143 g/ha: 0.0357 lb/A; for inhibition at 200.072 g/ha: 0.1785 lb/A; for inhibition at 1000.92 g/ha: 0.893 lb/A
Method in brief: as §2

[12] = test system: Velvetleaf; test: post-emergence herbicide test; settings: Abutilon theophrasti, post-emergence, read-out: % plant inhibition; for inhibition at 40.0143 g/ha: 0.0357 lb/A; for inhibition at 200.072 g/ha: 0.1785 lb/A; for inhibition at 1000.92 g/ha: 0.893 lb/A
Method in brief: as §2

[13] = test system: Wheat; test: post-emergence herbicide test; settings: Triticum aestivum, post-emergence, read-out: % plant inhibition; for inhibition at 40.0143 g/ha: 0.0357 lb/A; for inhibition at 200.072 g/ha: 0.1785 lb/A; for inhibition at 1000.92 g/ha: 0.893 lb/A
Method in brief: as §2

[14] = test system: Yellow Foxtail; test: post-emergence herbicide test; settings: Setaria, read-out: % plant inhibition; for inhibition at 40.0143 g/ha: 0.0357 lb/A; for inhibition at 200.072 g/ha: 0.1785 lb/A; for inhibition at 1000.92 g/ha: 0.893 lb/A
Method in brief: as §2

[15] = test system: Yellow Nutsedge; test: post-emergence herbicide test; settings: Cyperus, read-out: % plant inhibition; for inhibition at 40.0143 g/ha: 0.0357 lb/A; for inhibition at 200.072 g/ha: 0.1785 lb/A; for inhibition at 1000.92 g/ha: 0.893 lb/A
Method in brief: as §2

C#CCOc1cc(-c2nn(C)c(C(F)(F)F)c2C)c(F)cc1Cl [Compound 39]
35%: inhibition at 40.0143 g/ha ([6]; Table 4a)
80%: inhibition at 40.0143 g/ha ([6]; Table 5a) | inhibition at 7.95803 g/ha ([7]; 0.0071 lb/A) | inhibition at 200.072 g/ha [7] | inhibition at 40.0143 g/ha [10]
75%: inhibition at 7.95803 g/ha ([12]; 0.0071 lb/A) | inhibition at 1000.92 g/ha [13]
40%: inhibition at 40.0143 g/ha [15]
25%: inhibition at 200.072 g/ha ([6]; Table 4a) | inhibition at 7.95803 g/ha ([11]; 0.0071 lb/A)
98%: inhibition at 200.072 g/ha [4] | inhibition at 1000.92 g/ha [4] | inhibition at 40.0143 g/ha [7]
10%: inhibition at 7.95803 g/ha ([6]; Table 4a) | inhibition at 200.072 g/ha [15]
15%: inhibition at 200.072 g/ha [13]
95%: inhibition at 7.95803 g/ha ([3]; 0.0071 lb/A) | inhibition at 200.072 g/ha ([6]; Table 5a) | inhibition at 1000.92 g/ha [9] | inhibition at 7.95803 g/ha ([10]; 0.0071 lb/A) | inhibition at 1000.92 g/ha [10]
0%: inhibition at 7.95803 g/ha ([5]; 0.0071 lb/A) | inhibition at 7.95803 g/ha ([6]; Table 5a) | inhibition at 7.95803 g/ha ([8]; 0.0071 lb/A) | inhibition at 7.95803 g/ha ([13]; 0.0071 lb/A) | inhibition at 40.0143 g/ha [13] | inhibition at 7.95803 g/ha ([15]; 0.0071 lb/A)
100%: inhibition at 1000.92 g/ha [1] | inhibition at 7.95803 g/ha ([2]; 0.0071 lb/A) | inhibition at 40.0143 g/ha [2] | inhibition at 200.072 g/ha [2] | inhibition at 1000.92 g/ha [2] | inhibition at 40.0143 g/ha [3] | inhibition at 200.072 g/ha [3] | inhibition at 280.212 g/ha ([3]; 0.25 lb/A) | inhibition at 1000.92 g/ha [3] | inhibition at 40.0143 g/ha [5] | inhibition at 200.072 g/ha [5] | inhibition at 1000.92 g/ha [5] | inhibition at 1000.92 g/ha ([6]; Table 5a) | inhibition at 1000.92 g/ha [7] | inhibition at 40.0143 g/ha [8] | inhibition at 200.072 g/ha [8] | inhibition at 1000.92 g/ha [8] | inhibition at 200.072 g/ha [9] | inhibition at 200.072 g/ha [10] | inhibition at 1000.92 g/ha [11] | inhibition at 40.0143 g/ha [12] | inhibition at 200.072 g/ha [12] | inhibition at 1000.92 g/ha [12] | inhibition at 40.0143 g/ha [14] | inhibition at 200.072 g/ha [14] | inhibition at 1000.92 g/ha [14]
50%: inhibition at 7.95803 g/ha ([9]; 0.0071 lb/A)
70%: inhibition at 40.0143 g/ha [1] | inhibition at 40.0143 g/ha [4] | inhibition at 1000.92 g/ha ([6]; Table 4a) | inhibition at 40.0143 g/ha [11] | inhibition at 200.072 g/ha [11]
85%: inhibition at 200.072 g/ha [1]
30%: inhibition at 7.95803 g/ha ([4]; 0.0071 lb/A) | inhibition at 40.0143 g/ha [9] | inhibition at 1000.92 g/ha [15]
65%: inhibition at 7.95803 g/ha ([1]; 0.0071 lb/A) | inhibition at 7.95803 g/ha ([14]; 0.0071 lb/A)

Cc1c(-c2cc(O)c(Cl)cc2F)nn(C)c1C(F)(F)F [Compound 40]
85%: inhibition at 5043.82 g/ha ([4]; 4.5 lb/A) | inhibition at 1000.92 g/ha [9]
45%: inhibition at 200.072 g/ha [9]
50%: inhibition at 1000.92 g/ha ([6]; Table 4a) | inhibition at 200.072 g/ha [8] | inhibition at 5043.82 g/ha ([9]; 4.5 lb/A) | inhibition at 40.0143 g/ha [10]
10%: inhibition at 1000.92 g/ha [14]
65%: inhibition at 5043.82 g/ha ([1]; 4.5 lb/A) | inhibition at 1000.92 g/ha [4] | inhibition at 1000.92 g/ha ([6]; Table 5a) | inhibition at 200.072 g/ha [7]
35%: inhibition at 200.072 g/ha ([6]; Table 5a)
75%: inhibition at 200.072 g/ha [12]
80%: inhibition at 1000.92 g/ha [3] | inhibition at 40.0143 g/ha [7] | inhibition at 1000.92 g/ha [10] | inhibition at 5043.82 g/ha ([11]; 4.5 lb/A)
15%: inhibition at 40.0143 g/ha [8] | inhibition at 200.072 g/ha [13]
60%: inhibition at 1000.92 g/ha [2] | inhibition at 200.072 g/ha [5]
0%: inhibition at 40.0143 g/ha [1] | inhibition at 200.072 g/ha [1] | inhibition at 1000.92 g/ha [1] | inhibition at 40.0143 g/ha [2] | inhibition at 200.072 g/ha [2] | inhibition at 40.0143 g/ha [3] | inhibition at 200.072 g/ha [3] | inhibition at 40.0143 g/ha [4] | inhibition at 200.072 g/ha [4] | inhibition at 40.0143 g/ha ([6]; Table 4a) | inhibition at 40.0143 g/ha ([6]; Table 5a) | inhibition at 200.072 g/ha ([6]; Table 4a) | inhibition at 40.0143 g/ha [13] | inhibition at 40.0143 g/ha [14] | inhibition at 200.072 g/ha [14] | inhibition at 1000.92 g/ha [15] | inhibition at 5043.82 g/ha ([15]; 4.5 lb/A)
20%: inhibition at 40.0143 g/ha [5] | inhibition at 1000.92 g/ha [13]
55%: inhibition at 40.0143 g/ha [12] | inhibition at 200.072 g/ha [15]
30%: inhibition at 5043.82 g/ha ([6]; Table 4a) | inhibition at 200.072 g/ha [11]
100%: inhibition at 5043.82 g/ha ([2]; 4.5 lb/A) | inhibition at 5043.82 g/ha ([3]; 4.5 lb/A) | inhibition at 5043.82 g/ha ([5]; 4.5 lb/A) | inhibition at 5043.82 g/ha ([6]; Table 5a) | inhibition at 5043.82 g/ha ([7]; 4.5 lb/A) | inhibition at 5043.82 g/ha ([10]; 4.5 lb/A) | inhibition at 1000.92 g/ha [12] | inhibition at 5043.82 g/ha ([12]; 4.5 lb/A) | inhibition at 5043.82 g/ha ([14]; 4.5 lb/A)
70%: inhibition at 1000.92 g/ha [7] | inhibition at 200.072 g/ha [10] | inhibition at 1000.92 g/ha [11] | inhibition at 40.0143 g/ha [15]
98%: inhibition at 1000.92 g/ha [5] | inhibition at 1000.92 g/ha [8] | inhibition at 5043.82 g/ha ([8]; 4.5 lb/A)
25%: inhibition at 40.0143 g/ha [9] | inhibition at 40.0143 g/ha [11] | inhibition at 5043.82 g/ha ([13]; 4.5 lb/A)
